{
  "source": "patent US8211465B2",
  "about": "“Immediate release and sustained release ibuprofen dosing regimen” (McNeil-PPC, Inc., priority 2007, dated 2012)",
  "system": "moderate to severe post-operative dental pain",
  "test": "PK/PD dental pain study, 12 hour observation period",
  "description": "A double-blind, randomized, parallel, placebo-controlled, single center, PK/PD dental pain study was conducted over a 12 hour observation period to evaluate the pharmacokinetic, pharmacodynamic, efficacy and safety profiles of certain ibuprofen dosing regimens. Specifically, a single dose of 600 mg ibuprofen extended release caplets was compared with equivalent total doses of ibuprofen immediate release 200 mg caplets administered in three different dosing regimens as well as placebo in the treatment of moderate to severe post-operative dental pain. […] One sub-group of patients had both pharmacokinetic and pharmacodynamic evaluation (PK group). The other sub-group of patients had only the analgesic efficacy evaluations (non-PK group). Patients from both subgroups were assigned at random to one of the five following treatments:\nA stopwatch technique was used to measure the onset of meaningful pain relief.",
  "data": [
    {"smiles": "CC(C)Cc1ccc(C(C)C(=O)O)cc1", "note": "(stereo not shown) [ibuprofen, 2-(4-isobutylphenyl)-propionic acid]", "values": [
      {"measurement": "pain relief during the first four hours", "setting": "400/200/0 regimen: immediate release 400 mg at 0 hour, 200 mg at 4 hours", "value": "superior pain relief over the other treatments"},
      {"measurement": "pain relief over the entire 12-hour study period", "setting": "400/200/0 regimen: immediate release 400 mg at 0 hour, 200 mg at 4 hours, dental pain patients", "value": "excellent pain relief"},
      {"measurement": "pain relief scores during the 4 to 12 hour interval", "setting": "400/200/0 regimen, no further ibuprofen after the first four hours", "value": "highest pain relief scores"},
      {"measurement": "pain relief during the first four hours", "setting": "600/0/0 immediate release treatment: 600 mg single dose at 0 hour", "value": "superior pain relief over the other treatments"}
    ]}
  ]
}
